Assay results as given in US20260151413A1, “ANTICANCER DRUG CONJUGATES” (Ariel Scientific Innovations Ltd., priority 2022, published 2026).
Entries after “also recorded” stand apart in the source; their conditions may differ.

Legend:
[1] = test system: 10 hematological cell-lines; test: In vitro cytotoxicity screening on the panel of hematological cell-lines (WST-1)
Procedure: The above cells were cultured in RPMI medium (Gibco, Thermo Fisher Scientific Inc., USA). […] All media were supplemented with 10% heat-inactivated Fetal Bovine Serum (FBS, Biological industries, Israel), 2 mM glutamine (Biological industries, Israel) and 1% penicillin and streptomycin (Biological industries, Israel). Cells were cultured at 37° C. in a humidified incubator with 5% CO2.
Growth inhibition in hematological malignancies cell-lines was measured by tetrazolium WST-1 assay (Roche, Basel, Switzerland). Cells (1*10^4) were treated with various concentrations of the specific chimera or parental drug. After 48 h of incubation, 10 μl of WST-1 reagent was added to the plate and incubated for 1 h at 37° C., at which point the absorbance (450 nm) was measured in an ELISA plate reader (Synergy HTX multi-mode reader, Winooski, Vermont, USA).
MUTZ5 and MHH-CALL4; B-cell Acute lymphocytic leukemia (B-cell ALL) model. DND41; T-ALL model. KG-1a and OCI-AML-3; Acute myeloid leukemia (AML) model and HEL; erythroleukemia model.

MUTZ5 = test: WST-1 proliferation assay, MUTZ5; assay type: cell-based, human; conditions: Homo sapiens; WST-1, 48 hours of treatment
Procedure: (§1) Albert Pinhasov (Ariel University, Ariel, Israel). […] Granta cells were kindly provided by Prof.
(§2) Table 3 [resents the calculated IC50 values (μM) for each chimera in different hematological malignancies cell-lines. The proliferation rate was measured by WST-1 assay after 48 hours of treatment. The result shown for each concentration point represents the […]

KG-1a = test: WST-1 proliferation assay, KG-1a; assay type: cell-based; conditions: Homo sapiens, KG-1a; WST-1, 48 hours of treatment
Procedure: as §1, §2

[2] = test system: OCI-AML3, KG-1a, Granta, Jeko-1, BV-173 and MDA MB-231 cell-lines; test: Low-dose proliferation test on aggressive cell-lines; assay type: cell-based; conditions: 50 nM-250 nM
Procedure: The cytotoxicity of the synthesized chimeras on MDA MB-328 was determined by measuring the mitochondrial enzyme activity, using a commercial XTT assay kit (Biological Industries, Bet-Ha'emek, Israel). All samples contained DMSO (Sigma Aldrich) at final concentration […], XTT reagent was added, and the cells were re-incubated for additional 3 h. During that time, the absorbencies in the wells were measured with a TECAN Infinite M200 ELISA reader at both 480 and 680 nm. The difference between these measurements was used for calculating the % Growth Inhibition (GI) in test wells compared to two controls: cells that were exposed to the medium and solvent, and those which were exposed to a solvent-free medium. All the tests were done in tetra-plicate; each experiment was conducted three times.
Therefore, it was decided to reduce chimera 9 and the parental drug (doxorubicin) doses to 50-250 nM range on the most four aggressive hematological malignancies cell-lines (OCI-AML3, KG-1a, Granta and Jeko-1). Moreover, chimera 9 was examined on an additional aggressive leukemia cell line (BV-173) and breast cancer cell-line model (MDA MB-231).

[3] = test system: Human primary anaplastic thyroid cancer (ATC) cells; test: Vitality/proliferation of primary anaplastic thyroid cancer cells; assay type: cell-based; conditions: 100 nM, 250 nM, 500 nM; 3, 5 and 7 days
Procedure: Human primary anaplastic thyroid cancer (ATC) cells were treated with chimera 9 (100 nM, 250 nM, and 500 nM), or Doxorubicin (100 nM, 250 nM, and 500 nM), or with vehicle, for 3, 5, and 7 days.

HEL = test: WST-1 proliferation assay, HEL; assay type: cell-based, human; conditions: Homo sapiens, HEL; WST-1, 48 hours of treatment
Procedure: as §1, §2

OCI-AML3 = test: WST-1 proliferation assay, OCI-AML3; assay type: cell-based; conditions: Homo sapiens, OCI-AML-3; WST-1, 48 hours of treatment
Procedure: as §1, §2

MINO = test: WST-1 proliferation assay, MINO; assay type: cell-based, human; conditions: Homo sapiens, MINO; WST-1, 48 hours of treatment
Procedure: as §1, §2

BV-173 cells = test: DNA damage by dual staining of pH2A.X and pATM; assay type: cell-based; conditions: 50 nM, 3 hours, compared to the parental drug
Procedure: BV-173 cells (2×10^5 cells/well) were treated with DMSO, Doxorubicin or Doxorubizen. After incubation for 3 hours, phosphorylation level of ATM and H2AX was measured by Muse cell analyzer using Muse Multi-Color DNA Damage Kit (Luminex Corporation, Part number: MCH200107) according to manufacturer's instructions. Phosphorylation levels were determined using Guava software (Luminex/Millipore, USA, version 3.3).
BV-173 cells were exposed to 50 nM chimera 9 or the non-conjugated drug Doxorubicin, and DNA damage was analyzed after 3 hours by using dual staining of phospho-Histone H2A.X (Ser139) and phospho-ATM (Ser1981) antibodies.

GRANTA = test: WST-1 proliferation assay, GRANTA; assay type: cell-based; conditions: WST-1, 48 hours of treatment
Procedure: as §1, §2

[4] = test system: aggressive papillary thyroid cancer cells; test: Proliferation of aggressive papillary thyroid cancer cells; assay type: cell-based; conditions: 10 nM and 100 nM, with respect to DMSO control
Procedure: Chimera 9 (also referred to herein as Doxorubizen) was evaluated in two different concentrations (10 nM and 100 nM) on aggressive papillary thyroid cancer and with respect to the parent anticancer drug Doxorubicin.

[5] = test system: OCI-AML3, KG-1a, Granta, Jeko-1 and BV-173 cells; test: Mitochondrial depolarization (Muse Mitochondrial Kit); assay type: cell-based; conditions: 50-250 nM depending on cell line, 48 hours, compared to the parental drug
Procedure: Changes in mitochondrial potential and cellular plasma membrane permeabilization, were determined with the Muse® Mitochondrial Kit (Luminex, USA). Briefly, Cells were treated with DMSO or the relevant chimera for 48 hours. The cells were incubated with MitoPotential working solution for 20 minutes at 37° C. in 5% CO2. Then, 5 μL Muse® MitoPotential 7-ADD reagent were added and the cells were incubated for 5 minutes at room temperature. The percentage of four cell populations: live (mitopotential+/7−AAD−), depolarized live (mitopotential−/7−AAD−), dead (mitopotential+/7−AAD+), and depolarized dead (mitopotential−/7−AAD+) were measured using the Muse® Cell Analyzer (Luminex, USA).
Chimera 9 was evaluated for its biological impact on mitochondrial function and cell death. To that end, the inventor treated the following cell lines OCI-AML3 (100 nM), KG-1a (100 nM), Granta (250 nM), Jeko-1 (50 nM) and BV-173 (50 nM) with doxorubicin or chimera 9.

Rec-1 = test: WST-1 proliferation assay, Rec-1; assay type: cell-based, human; conditions: Homo sapiens, Rec1; WST-1, 48 hours of treatment
Procedure: as §1, §2

COC(=O)N(C)/N=N/c1ccc(CNC2CC(OC3CC(O)(C(=O)CO)Cc4c(O)c5c(c(O)c43)C(=O)c3c(OC)cccc3C5=O)OC(C)C2O)cc1 (stereo not drawn) [Chimera 9, (E)-methyl-3-(4-(((3-hydroxy-2-methyl-6-((3,5,12-trihydroxy-3-(2-hydroxyacetyl)-10-methoxy-6,11-dioxo-1,2,3,4,6,11-hexahydrotetracen-1-yl)oxy)tetrahydro-2H-pyran-4-yl)amino)methyl)phenyl)-1-methyltriaz-2-ene-1-carboxylate]
cytotoxic effect ([1]; 250 nM): exceptional cytotoxic effect
effect on proliferation rate across the examined cell-lines ([1]; 10 hematological cell-lines, WST-1): inhibited the proliferation rate in all the examined cell-lines
cytotoxic effect compared to the parental non-conjugated drug ([1]; chimera vs its parent drug): reduced proliferation rate of numerous cell-lines; also recorded: superior to Doxorubicin
IC50 (MUTZ5): 0.52 µM
IC50 (KG-1a): 0.4 µM
proliferation rate versus corresponding controls [2]: significant reduction in the proliferation rate
vitality/proliferation of primary human ATC cells [3]: reduced the vitality/proliferation of primary human ATC cells significantly; also recorded: higher effect
IC50 (HEL): 0.97 µM
IC50 (OCI-AML3): 1.24 µM
IC50 (MINO): 0.48 µM
DNA damage: co-activation of pH2A.X and pATM (BV-173 cells): significant co-activation of pH2A.X and pATM
IC50 (GRANTA): 2.59 µM
proliferation of thyroid cancer cells [4]: reduce significantly the proliferation
mitochondrial membrane potential [5]: significantly collapsed mitochondrial membrane potential
IC50 (Rec-1): 0.52 µM
